Test results reported in PubChem BioAssay (NCI).
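Test compounds were applied to cells in 96-well plates for 48 hours at 5 doses. GI50 is the concentration that inhibits growth by half. TGI: concentration producing complete growth inhibition.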

Tests used:
Test in all cases: NCI-60 cell line screen, 48 h
786-0 renal = tested on: 786-0 renal
A498 renal = tested on: A498 renal
A549 NSCLC = tested on: A549 NSCLC
ACHN renal = tested on: ACHN renal
BT-549 breast = tested on: BT-549 breast
CAKI-1 renal = tested on: CAKI-1 renal
CCRF-CEM leukemia = tested on: CCRF-CEM leukemia
COLO 205 colon = tested on: COLO 205 colon
DU-145 prostate = tested on: DU-145 prostate
EKVX NSCLC = tested on: EKVX NSCLC
HCC-2998 colon = tested on: HCC-2998 colon
HCT-116 colon = tested on: HCT-116 colon
HCT-15 colon = tested on: HCT-15 colon
HL-60(TB) leukemia = tested on: HL-60(TB) leukemia
HOP-62 NSCLC = tested on: HOP-62 NSCLC
HOP-92 NSCLC = tested on: HOP-92 NSCLC
HS 578T breast = tested on: HS 578T breast
HT29 colon = tested on: HT29 colon
IGROV1 ovarian = tested on: IGROV1 ovarian
K-562 leukemia = tested on: K-562 leukemia
KM12 colon = tested on: KM12 colon
LOX IMVI melanoma = tested on: LOX IMVI melanoma
M14 melanoma = tested on: M14 melanoma
MALME-3M melanoma = tested on: MALME-3M melanoma
MCF7 breast = tested on: MCF7 breast
MDA-MB-231 breast = tested on: MDA-MB-231 breast
MDA-MB-435 = tested on: MDA-MB-435
MDA-MB-468 breast = tested on: MDA-MB-468 breast
MOLT-4 leukemia = tested on: MOLT-4 leukemia
NCI-H226 lung = tested on: NCI-H226 lung
NCI-H23 lung = tested on: NCI-H23 lung
NCI-H460 lung = tested on: NCI-H460 lung
NCI-H522 lung = tested on: NCI-H522 lung
OVCAR-3 ovarian = tested on: OVCAR-3 ovarian
OVCAR-4 ovarian = tested on: OVCAR-4 ovarian
OVCAR-5 ovarian = tested on: OVCAR-5 ovarian
OVCAR-8 ovarian = tested on: OVCAR-8 ovarian
PC-3 prostate = tested on: PC-3 prostate
RPMI-8226 leukemia = tested on: RPMI-8226 leukemia
RXF 393 renal = tested on: RXF 393 renal
SF-268 CNS = tested on: SF-268 CNS
SF-295 CNS = tested on: SF-295 CNS
SF-539 CNS = tested on: SF-539 CNS
SK-MEL-2 melanoma = tested on: SK-MEL-2 melanoma
SK-MEL-28 melanoma = tested on: SK-MEL-28 melanoma
SK-MEL-5 melanoma = tested on: SK-MEL-5 melanoma
SK-OV-3 ovarian = tested on: SK-OV-3 ovarian
SN12C renal = tested on: SN12C renal
SNB-19 CNS = tested on: SNB-19 CNS
SNB-75 CNS = tested on: SNB-75 CNS
SR leukemia = tested on: SR leukemia
SW-620 colon = tested on: SW-620 colon
T-47D breast = tested on: T-47D breast
TK-10 renal = tested on: TK-10 renal
U251 CNS = tested on: U251 CNS
UACC-257 melanoma = tested on: UACC-257 melanoma
UACC-62 melanoma = tested on: UACC-62 melanoma
UO-31 renal = tested on: UO-31 renal

## O=C(c1ccc(Cl)cc1)C1[C@H](c2ccc(Br)cc2)[C@@H](c2ccccc2)NC12C(=O)Nc1ccccc12 (stereo partly specified)
786-0 renal
  GI50: 8 µM
  TGI: 23.1 µM
A498 renal
  GI50: 10.7 µM
  TGI: 22.2 µM
A549 NSCLC
  GI50: 5.03 µM
  TGI: 15.9 µM
ACHN renal
  GI50: 5.64 µM
  TGI: 15.5 µM
BT-549 breast
  GI50: 8.86 µM
  TGI: 17 µM
CAKI-1 renal
  GI50: 2.88 µM
  TGI: 17.4 µM
CCRF-CEM leukemia
  GI50: 4.54 µM
  TGI: 26.8 µM
COLO 205 colon
  GI50: 9.95 µM
  TGI: 19.6 µM
DU-145 prostate
  GI50: 9.92 µM
  TGI: 28.5 µM
EKVX NSCLC
  GI50: 9.02 µM
  TGI: 29 µM
HCC-2998 colon
  GI50: 7.79 µM
  TGI: 16.7 µM
HCT-116 colon
  GI50: 3.83 µM
  TGI: 13.5 µM
HCT-15 colon
  GI50: 6.91 µM
  TGI: 18.7 µM
HL-60(TB) leukemia
  GI50: 8.74 µM
  TGI: 40.8 µM
HOP-62 NSCLC
  GI50: 8.69 µM
  TGI: 18.3 µM
HOP-92 NSCLC
  GI50: 6.27 µM
  TGI: 15.1 µM
HS 578T breast
  GI50: 8.79 µM
  TGI: 26.3 µM
HT29 colon
  GI50: 5.7 µM
  TGI: 15 µM
IGROV1 ovarian
  GI50: 7.01 µM
  TGI: 16.2 µM
K-562 leukemia
  GI50: 2.94 µM
  TGI: 56 µM
KM12 colon
  GI50: 6.13 µM
  TGI: 17.9 µM
LOX IMVI melanoma
  GI50: 5.04 µM
  TGI: 14.3 µM
M14 melanoma
  GI50: 6.97 µM
  TGI: 16.4 µM
MALME-3M melanoma
  GI50: 8.65 µM
  TGI: 16.3 µM
MCF7 breast
  GI50: 4.65 µM
  TGI: 29.3 µM
MDA-MB-231 breast
  GI50: 6.21 µM
  TGI: 13.5 µM
MDA-MB-435
  GI50: 7.84 µM
  TGI: 16.9 µM
MDA-MB-468 breast
  GI50: 8.43 µM
  TGI: 19.5 µM
MOLT-4 leukemia
  GI50: 2.69 µM
  TGI: 48.7 µM
NCI-H226 lung
  GI50: 7.87 µM
  TGI: 15.9 µM
NCI-H23 lung
  GI50: 8.53 µM
  TGI: 19.6 µM
NCI-H460 lung
  GI50: 5.88 µM
  TGI: 16 µM
NCI-H522 lung
  GI50: 5.93 µM
  TGI: 15.5 µM
OVCAR-3 ovarian
  GI50: 8.74 µM
  TGI: 27.4 µM
OVCAR-4 ovarian
  GI50: 8.37 µM
  TGI: 31.3 µM
OVCAR-5 ovarian
  GI50: 7.19 µM
  TGI: 15.1 µM
OVCAR-8 ovarian
  GI50: 8.26 µM
  TGI: 17.3 µM
PC-3 prostate
  GI50: 2.86 µM
  TGI: 17.7 µM
RPMI-8226 leukemia
  GI50: 6.53 µM
  TGI: 33.9 µM
RXF 393 renal
  GI50: 6.62 µM
  TGI: 14 µM
SF-268 CNS
  GI50: 7.03 µM
  TGI: 28.9 µM
SF-295 CNS
  GI50: 6.33 µM
  TGI: 16.9 µM
SF-539 CNS
  GI50: 8.59 µM
  TGI: 18 µM
SK-MEL-2 melanoma
  GI50: 8.59 µM
  TGI: 16.9 µM
SK-MEL-28 melanoma
  GI50: 7.53 µM
  TGI: 15.1 µM
SK-MEL-5 melanoma
  GI50: 9.7 µM
  TGI: 17.7 µM
SK-OV-3 ovarian
  GI50: 14.8 µM
  TGI: 54 µM
SN12C renal
  GI50: 5.41 µM
  TGI: 12.3 µM
SNB-19 CNS
  GI50: 10.7 µM
  TGI: 42.2 µM
SNB-75 CNS
  GI50: 5.1 µM
  TGI: 26.1 µM
SR leukemia
  GI50: 4.32 µM
  TGI: 42.2 µM
SW-620 colon
  GI50: 7.4 µM
  TGI: 18.6 µM
T-47D breast
  GI50: 3.96 µM
  TGI: 16 µM
TK-10 renal
  GI50: 8.72 µM
  TGI: 20.1 µM
U251 CNS
  GI50: 7.49 µM
  TGI: 16 µM
UACC-257 melanoma
  GI50: 7.28 µM
  TGI: 16.3 µM
UACC-62 melanoma
  GI50: 4.16 µM
  TGI: 12.1 µM
UO-31 renal
  GI50: 3.37 µM
  TGI: 12 µM
